According to patent EP0726261A1, “Herbidical 1,2,4 thiadiazoles” (American Cyanamid Company, priority 1995, dated 1996):

Key:
Format in all cases: in vivo
Glycine max [1] = test: Herbicidal activity, preemergence test (Example 66); design: key: A rating of 0 indicates growth as untreated control; a rating of 9 indicates death; conditions: pre; 1000 g/ha; assessed visually twenty days after spraying
Description: (§1) To evaluate their herbicidal activity, compounds according to the invention are tested using a representative range of plants: ZEAMX Zea mays ORYSA Oryza sativa GLXMA Glycine max BEAVA Beta vulgaris LIUUT Linum usitatissimum AVEFA Avena fatua ECHCG Echinochloa crus-galli SINAL Sinapsis alba
(§2) The tests fall into two categories, preemergence and postemergence. The preemergence tests involve spraying a liquid formulation of the compound onto the soil in which the seeds of the plant species mentioned above have recently been sown. The postemergence tests involve spraying a liquid formulation of the compound onto seedling plants of the above species.
(§3) The soil used in the tests is a prepared horticultural loam.
(§4) The formulations used in the tests are prepared from solutions of the test compounds in acetone containing 0.4% by weight of an alkylphenol/ethylene oxide condensate available under the trademark TRITON X-155. These acetone solutions are diluted with water and the resulting formulations applied at dosage levels corresponding to 1000 g of active material per hectare in a volume equivalent to 900 litres per hectare.
(§5) In the preemergence tests, untreated sown soil, and in the postemergence tests, untreated soil bearing seedling plants, are used as controls.
(§6) The herbicidal effects of the test compounds are assessed visually twenty days after spraying the foliage and the soil and are recorded on a 0-9 scale. A rating of 0 indicates growth as untreated control, a rating of 9 indicates death. An increase of 1 unit on the linear scale approximates to an 11% increase in the level of effect.

Zea mays [2] = test: as above; design: key: A rating of 0 indicates growth as untreated control; a rating of 9 indicates death; conditions: pre; 1000 g/ha; assessed visually twenty days after spraying
Description: as §1, §2, §3, §4, §5, §6

Beta vulgaris [3] = test: as above; design: key: A rating of 0 indicates growth as untreated control; a rating of 9 indicates death; conditions: pre; 1000 g/ha; assessed visually twenty days after spraying
Description: as §1, §2, §3, §4, §5, §6

Oryza sativa [4] = test: as above; design: key: A rating of 0 indicates growth as untreated control; a rating of 9 indicates death; conditions: pre; 1000 g/ha; assessed visually twenty days after spraying
Description: as §1, §2, §3, §4, §5, §6

Sinapsis alba [5] = test: as above; design: key: A rating of 0 indicates growth as untreated control; a rating of 9 indicates death; conditions: pre; 1000 g/ha; assessed visually twenty days after spraying
Description: as §1, §2, §3, §4, §5, §6

Linum usitatissimum [6] = test: as above; design: key: A rating of 0 indicates growth as untreated control; a rating of 9 indicates death; conditions: pre; 1000 g/ha; assessed visually twenty days after spraying
Description: as §1, §2, §3, §4, §5, §6

Echinochloa crus-galli [7] = test: as above; design: key: A rating of 0 indicates growth as untreated control; a rating of 9 indicates death; conditions: pre; 1000 g/ha; assessed visually twenty days after spraying
Description: as §1, §2, §3, §4, §5, §6

Avena fatua [8] = test: as above; design: key: A rating of 0 indicates growth as untreated control; a rating of 9 indicates death; conditions: pre; 1000 g/ha; assessed visually twenty days after spraying
Description: as §1, §2, §3, §4, §5, §6

Zea mays [9] = test: Herbicidal activity, postemergence test (Example 66); design: key: A rating of 0 indicates growth as untreated control; a rating of 9 indicates death; conditions: post; 1000 g/ha; assessed visually twenty days after spraying
Description: as §1, §2, §3, §4, §5, §6

Beta vulgaris [10] = test: as above; design: key: A rating of 0 indicates growth as untreated control; a rating of 9 indicates death; conditions: post; 1000 g/ha; assessed visually twenty days after spraying
Description: as §1, §2, §3, §4, §5, §6

Oryza sativa [11] = test: as above; design: key: A rating of 0 indicates growth as untreated control; a rating of 9 indicates death; conditions: post; 1000 g/ha; assessed visually twenty days after spraying
Description: as §1, §2, §3, §4, §5, §6

Sinapsis alba [12] = test: as above; design: key: A rating of 0 indicates growth as untreated control; a rating of 9 indicates death; conditions: post; 1000 g/ha; assessed visually twenty days after spraying
Description: as §1, §2, §3, §4, §5, §6

Linum usitatissimum [13] = test: as above; design: key: A rating of 0 indicates growth as untreated control; a rating of 9 indicates death; conditions: post; 1000 g/ha; assessed visually twenty days after spraying
Description: as §1, §2, §3, §4, §5, §6

Echinochloa crus-galli [14] = test: as above; design: key: A rating of 0 indicates growth as untreated control; a rating of 9 indicates death; conditions: post; 1000 g/ha; assessed visually twenty days after spraying
Description: as §1, §2, §3, §4, §5, §6

Avena fatua [15] = test: as above; design: key: A rating of 0 indicates growth as untreated control; a rating of 9 indicates death; conditions: post; 1000 g/ha; assessed visually twenty days after spraying
Description: as §1, §2, §3, §4, §5, §6

Glycine max [16] = test: as above; conditions: post; 1000 g/ha; assessed visually twenty days after spraying
Description: as §1, §2, §3, §4, §5, §6

| Compound | herbicidal effects on a 0-9 scale, GLXMA (Glycine max [1]) | herbicidal effects on a 0-9 scale, ZEAMX (Zea mays [2]) | herbicidal effects on a 0-9 scale, BEAVA (Beta vulgaris [3]) | herbicidal effects on a 0-9 scale, ORYSA (Oryza sativa [4]) | herbicidal effects on a 0-9 scale, SINAL (Sinapsis alba [5]) | herbicidal effects on a 0-9 scale, LIUUT (Linum usitatissimum [6]) | herbicidal effects on a 0-9 scale, ECHCG (Echinochloa crus-galli [7]) | herbicidal effects on a 0-9 scale, AVEFA (Avena fatua [8]) | herbicidal effects on a 0-9 scale, ZEAMX (Zea mays [9]) | herbicidal effects on a 0-9 scale, BEAVA (Beta vulgaris [10]) | herbicidal effects on a 0-9 scale, ORYSA (Oryza sativa [11]) | herbicidal effects on a 0-9 scale, SINAL (Sinapsis alba [12]) | herbicidal effects on a 0-9 scale, LIUUT (Linum usitatissimum [13]) | herbicidal effects on a 0-9 scale, ECHCG (Echinochloa crus-galli [14]) | herbicidal effects on a 0-9 scale, AVEFA (Avena fatua [15]) | herbicidal effects on a 0-9 scale, GLXMA (Glycine max [16]) |
| --- | --- | --- | --- | --- | --- | --- | --- | --- | --- | --- | --- | --- | --- | --- | --- | --- |
| C[C@H](NC(=O)c1nc(C(C)(C)C)ns1)c1ccccc1 [Example 8, (S)-3-tert-Butyl-[1,2,4]thiadiazole-5-carboxylic acid, 1-(phenylethyl)amide] | 0 | 0 | 8 | 0 | 8 | 0 | 0 | 0 | 0 | 9 | 0 | 9 | 9 | 8 | 6 | 6 |
| CC(C)c1nsc(C(=O)NCc2cccs2)n1 [Example 9] | 0 | 0 | 0 | 0 | 4 | 0 | 2 | 0 | 2 | 7 | 0 | 7 | 2 | 5 | 0 | 2 |
| CC(C)c1nsc(C(=O)N[C@@H](C)c2ccccc2)n1 [Example 10, (S)-3-Isopropyl-[1,2,4]thiadiazole-5-carboxylic acid, 1-(phenylethyl)amide] | 0 | 0 | 7 | 0 | 7 | 4 | 5 | 0 | 2 | 8 | 0 | 8 | 8 | 8 | 5 | 5 |
| CC(C)Cc1nsc(C(=O)NCc2cccs2)n1 [Example 11] | 0 | 0 | 0 | 0 | 0 | 0 | 0 | 0 | 0 | 4 | 0 | 7 | 2 | 2 | 0 | 2 |
| CC(C)Cc1nsc(C(=O)N[C@@H](C)c2ccccc2)n1 [Example 13, (S)-3-Isobutyl-[1,2,4]thiadiazole-5-carboxylic acid, 1-(phenylethyl)amide] | 0 | 0 | 5 | 0 | 4 | 0 | 2 | 0 | 2 | 9 | 0 | 8 | 7 | 8 | 5 | 5 |
| O=C(NCc1cccs1)c1nc(-c2ccc(F)cc2)ns1 [Example 14] | 0 | 0 | 0 | 0 | 0 | 0 | 0 | 0 | 0 | 8 | 0 | 8 | 5 | 2 | 0 | 2 |
| C[C@H](NC(=O)c1nc(-c2ccc(F)cc2)ns1)c1ccccc1 [Example 16, (S)-3-(4-Fluorophenyl)-[1,2,4]thiadiazole-5-carboxylic acid, 1-(phenylethyl)amide] | 0 | 0 | 0 | 0 | 0 | 0 | 0 | 0 | 0 | 9 | 2 | 9 | 7 | 8 | 7 | 6 |
